Results on 14 molecules are retold here after US10981908B2, “Aryl hydrocarbon receptor (AHR) modulator compounds” (PHENEX PHARMACEUTICALS AG, priority 2017, dated 2021).

The structures appear in SMILES notation.

In the test the target is T1, AhR (Homo sapiens, UniProt P35869).
T1 construct: The HepG2 CYP1A1-Luc cells do express basal luciferase activity that can be increased via potent AhR agonists or decreased via potent AhR antagonists; endogenous in cells
T1 sequence (P35869 11-848): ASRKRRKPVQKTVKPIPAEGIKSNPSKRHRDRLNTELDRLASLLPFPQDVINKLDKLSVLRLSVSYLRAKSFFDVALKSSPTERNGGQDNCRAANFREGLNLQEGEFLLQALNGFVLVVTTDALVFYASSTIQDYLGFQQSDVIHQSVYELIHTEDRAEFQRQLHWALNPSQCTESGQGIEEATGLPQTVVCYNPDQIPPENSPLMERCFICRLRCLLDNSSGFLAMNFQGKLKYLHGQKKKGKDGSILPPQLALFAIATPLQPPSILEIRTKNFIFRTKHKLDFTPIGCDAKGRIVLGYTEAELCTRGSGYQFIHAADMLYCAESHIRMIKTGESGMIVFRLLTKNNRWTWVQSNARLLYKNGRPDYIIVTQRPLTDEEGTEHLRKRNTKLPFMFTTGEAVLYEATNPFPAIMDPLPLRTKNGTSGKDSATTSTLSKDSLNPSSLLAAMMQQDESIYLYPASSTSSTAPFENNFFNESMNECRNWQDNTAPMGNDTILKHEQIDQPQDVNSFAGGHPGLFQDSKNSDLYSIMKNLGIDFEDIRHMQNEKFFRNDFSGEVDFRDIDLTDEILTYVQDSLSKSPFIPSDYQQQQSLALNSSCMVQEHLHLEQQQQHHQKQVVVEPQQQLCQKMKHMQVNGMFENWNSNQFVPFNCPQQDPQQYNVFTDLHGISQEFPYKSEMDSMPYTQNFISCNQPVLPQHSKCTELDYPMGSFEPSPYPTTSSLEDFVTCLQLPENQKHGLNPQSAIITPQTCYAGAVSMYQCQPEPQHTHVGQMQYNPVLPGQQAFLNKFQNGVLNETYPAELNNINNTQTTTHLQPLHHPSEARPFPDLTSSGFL
In words: AhR direct luciferase reporter assay in HepG2 cells (HepG2 CYP1A1-LUC). The format is cell-based. Particulars: luciferase activity after 18 hours, medium with no exogenous AhR agonist or 10 nM VAF347, read-out: AhR potency (AhR antagonistic potency, IC50 class). An excerpt:
AhR Direct Luciferase Reporter Assay in HepG2 Cells
A stable cell line (HepG2 CYP1A1-LUC) was used in which part of the promoter region of the human CYP1A1 gene is stably integrated into the genome of human HepG2 hepatocytes (DSZM #ACC 180) in front of a Photinus pyralis Firefly Luciferase gene. A 1210 bp fragment comprising part of the human CYP1A1 promoter was isolated via SacI and BgIII restriction digestion from Lightswitch Clone S714555 (SwitchGearGenomics) and inserted between the SacI and BgIII sites in pGL4.30 (Promega #E8481) in front of the Firefly Luciferase gene. The resulting vector was linearized with NotI, transfected into HepG2 cells (DSMZ #ACC 180) and stably transfected clones selected with 250 μg/ml Hygromycin B. After repetitive rounds of subcloning and testing for robustly regulated luciferase activity after AhR agonist stimulation, a stable clonal HepG2 CYP1A1-Luc cell line was selected.
The HepG2 CYP1A1-Luc cells do express basal luciferase activity that can be increased via potent AhR agonists or decreased via potent AhR antagonists, added to the growth medium of the cells.
In typical reporter assays performed with this cell line, cells are grown in 96-well plates and AhR modulators are titrated into the growth medium in serial dilutions in RPMI-1640 Medium (Sigma #R7509) supplemented with 8,6% fetal calf serum (Sigma #F7524) and containing either no exogenous AhR agonist or 10 nM of the potent AhR agonist VAF347 (Calbiochem #182690). Cells are further cultivated for 18 hours and luciferase activities are determined from extracts of cells in buffers containing D-Luciferine and ATvP using a LUMIstar Optima microplate Luminometer from BMG Labtech.
In general terms: In a reporter assay the amount or activity of a reporter protein is the signal.
One may read the IC50 as the point on the concentration scale where inhibition reaches its midpoint. Consider `Cn1ncnc1C(=O)Nc1ccc2cc(-c3ccccc3S(C)(=O)=O)[nH]c2n1` [Example 1/23, 1-Methyl-N-(2-(2-(methylsulfonyl)phenyl)-1H-pyrrolo[2,3-b]pyridin-6-yl)-1H-1,2,4-triazole-5-carboxamide], for which the IC50 was above 1000 nM.
Take `Cc1cc2cc(-c3ccccc3C(F)(F)F)[nH]c2nc1NC(=O)c1ncnn1C` [Example 1/31, 1-Methyl-N-(5-methyl-2-(2-(trifluoromethyl)phenyl)-1H-pyrrolo[2,3-b]pyridin-6-yl)-1H-1,2,4-triazole-5-carboxamide]: the 50% inhibitory concentration (IC50) was in the range of 100 to 1000 nM.
As for `Cn1ncnc1C(=O)Nc1ccc2cc(-c3ccccc3C(F)F)[nH]c2n1` [Example 1/15, N-(2-(2-(Difluoromethyl)phenyl)-1H-pyrrolo[2,3-b]pyridin-6-yl)-1-methyl-1H-1,2,4-triazole-5-carboxamide], the figure is below 100 nM; as for `Cn1ncnc1C(=O)Nc1ccc2cc(-c3ccccc3C(F)(F)F)n(C)c2n1` [Example 3, 1-Methyl-N-(1-methyl-2-(2-(trifluoromethyl)phenyl)-1H-pyrrolo[2,3-b]pyridin-6-yl)-1H-1,2,4-triazole-5-carboxamide], 100 to 1000 nM; as for `Cn1ncnc1C(=O)Nc1ccc2cc(-c3ccc(C(F)F)cc3)[nH]c2n1` [Example 1/25, N-(2-(4-(Difluoromethyl)phenyl)-1H-pyrrolo[2,3-b]pyridin-6-yl)-1-methyl-1H-1,2,4-triazole-5-carboxamide], below 100 nM.
Regarding `Cn1ncnc1C(=O)Nc1ccc2cc(-c3ccccc3C#N)[nH]c2n1` [4/2], the concentration for half-maximal inhibition (IC50) is 100 to 1000 nM.
On to `Cn1ncnc1C(=O)Nc1ccc2cc(-c3cccc(F)c3C(F)(F)F)[nH]c2n1` [Example 1/11, N-(2-(3-Fluoro-2-(trifluoromethyl)phenyl)-1H-pyrrolo[2,3-b]pyridin-6-yl)-1-methyl-1H-1,2,4-triazole-5-carboxamide], for which the IC50 was below 100 nM.
For the molecule `O=C(Nc1ccc2cc(-c3ccccc3C(F)(F)F)[nH]c2n1)c1ccccn1` [Example 1/7, N-(2-(2-(Trifluoromethyl)phenyl)-1H-pyrrolo[2,3-b]pyridin-6-yl) picolinamide], the IC50 was below 100 nM.
On to `Cc1nonc1C(=O)Nc1ccc2cc(-c3ccccc3C(F)(F)F)[nH]c2n1` [Example 1/20, 4-Methyl-N-(2-(2-(trifluoromethyl)phenyl)-1H-pyrrolo[2,3-b]pyridin-6-yl)-1,2,5-oxadiazole-3-carboxamide], for which the half-inhibitory concentration (IC50) was below 100 nM.
For the molecule `CN(C)C(=O)c1ccccc1-c1cc2ccc(NC(=O)c3ncnn3C)nc2[nH]1` [Example 8, N-(2-(2-(Dimethylcarbamoyl)phenyl)-1H-pyrrolo[2,3-b]pyridin-6-yl)-1-methyl-1H-1,2,4-triazole-5-carboxamide], the IC50 was above 1000 nM.
As for `Cn1ncnc1C(=O)Nc1ccc2cc(-c3cc(F)ccc3C(F)F)[nH]c2n1` [Example 4/9, N-(2-(2-(difluoromethyl)-5-fluorophenyl)-1H-pyrrolo[2,3-b]pyridin-6-yl)-1-methyl-1H-1,2,4-triazole-5-carboxamide], the 50% inhibitory concentration (IC50) was below 100 nM.
Regarding `Cn1cncc1C(=O)Nc1ccc2cc(-c3ccccc3C(F)F)[nH]c2n1` [Example 5, N-(2-(2-(Difluoromethyl)phenyl)-1H-pyrrolo[2,3-b]pyridin-6-yl)-1-methyl-1H-imidazole-5-carboxamide], the IC50 fell in the range of 100 to 1000 nM.
Regarding `Cn1nccc1C(=O)Nc1ccc2cc(-c3cccc(OC(F)(F)F)c3)[nH]c2n1` [Example 1/5, 1-Methyl-N-(2-(3-(trifluoromethoxy)phenyl)-1H-pyrrolo[2,3-b]pyridin-6-yl)-1H-pyrazole-5-carboxamide], the IC50 is above 1000 nM.
For the molecule `Cn1ncnc1C(=O)Nc1ccc2cc(-c3cc(C4CC4)ccc3C(F)(F)F)[nH]c2n1` [Example 1/27, N-(2-(5-Cyclopropyl-2-(trifluoromethyl)phenyl)-1H-pyrrolo[2,3-b]pyridin-6-yl)-1-methyl-1H-1,2,4-triazole-5-carboxamide], the IC50 was below 100 nM.
